Our source for the pest or weed control, plant injury and Control/Injury values is US20240122179A1, “AUXINIC HERBICIDES AND METHODS OF USE THEREOF” (CORTEVA AGRISCIENCE LLC, priority 2021, published 2024).

Data set [1] has as its system Amaranthus rudis (AMATA). The experiment in a line: Postemergence herbicide evaluation, percent reduction in plant size vs untreated control, 21 days after treatment. To be noted: Amaranthus tuberculatus, post-emergence, 504 h, AMATA, postemergence, read-out: Control/Injury; for pest or weed control at 140 g/ha: rate 140 g ae/ha; for pest or weed control at 280 g/ha: rate 280 g ae/ha. In kind it is in vivo, Amaranthus rudis (tall water hemp). Summed up: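 Growth-reduction values are percent decrease in plant size relative to untreated plants, scored 21 days post-application. Amaranthus rudis (2-8 leaves) received postemergence sprays at 140 or 280 g ae/ha, 187 L/ha, in a mixed acetone/DMSO/water/isopropanol carrier with crop oil concentrate. Greenhouse conditions were 25-28° C, 50-60% RH; 3-4 randomized replicates.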

For data set [2], the system named is Ambrosia artemisiifolia (AMBEL). The data set is described as above. It is filed as in vivo, Ambrosia artemisiifolia (common ragweed). To be noted: post-emergence, 504 h, AMBEL, postemergence, read-out: Control/Injury; for pest or weed control at 140 g/ha: rate 140 g ae/ha; for pest or weed control at 280 g/ha: rate 280 g ae/ha. The method, boiled down:
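Test compounds at 140 or 280 g ae/ha were applied by track sprayer (187 L/ha, spray solution containing acetone/DMSO, isopropanol, crop oil, surfactant) to 2–8 leaf plants, 3–4 replicates. Plants were kept in a greenhouse at 25–28 °C. Size reduction was scored against untreated controls at 21 days.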

For data set [3], the system named is Kochia scoparia (KCHSC). The description is as above. To be noted: Bassia scoparia, post-emergence, 504 h, KCHSC, postemergence, 21 days after treatment, read-out: Control/Injury; for pest or weed control at 140 g/ha: rate 140 g ae/ha; for pest or weed control at 280 g/ha: rate 280 g ae/ha. It is filed as in vivo. Summed up:
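Values are percent reduction in plant size against an untreated control, measured 21 days after a single postemergence spray at 140 or 280 g ae/ha (187 L/ha, 276 kPa). Treatments used 3-4 randomized complete-block replicates on 2 to 8 leaf-stage plants kept in a 25-28 °C greenhouse, with compounds in acetone/DMSO-based solvent containing crop oil and surfactant.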

Data set [4] relates to Amaranthus palmeri (AMAPA). The data set is described as above. To be noted: post-emergence, 504 h, postemergence, read-out: Control/Injury; for pest or weed control at 140 g/ha: rate 140 g ae/ha; for pest or weed control at 280 g/ha: rate 280 g ae/ha. It is filed as in vivo, Amaranthus palmeri (Palmer amaranth). Summed up:
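Percent reduction in plant size relative to untreated plants, measured 21 days after track-sprayer application (187 L/ha) of 140 or 280 g ae/ha to Amaranthus palmeri at the 2 to 8 leaf stage. Randomized complete block, 3 or 4 replicates, greenhouse at 25 to 28° C; spray solution acetone/DMSO with isopropanol, water and crop oil concentrate.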

For data set [5], the system named is Conyza canadensis (L.) (ERICA). Described as above. In kind it is in vivo, Conyza canadensis (L.) (Horseweed). To be noted: Erigeron canadensis, post-emergence, 504 h, ERICA, postemergence, read-out: Control/Injury; for pest or weed control at 140 g/ha: rate 140 g ae/ha; for pest or weed control at 280 g/ha: rate 280 g ae/ha. Summed up: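 Track-sprayer applications (187 L/ha, 276 kPa) of 140 or 280 g ae/ha, technical material dissolved in acetone/DMSO then diluted with crop oil and surfactant-containing solvent, to greenhouse Conyza canadensis at 2-8 leaves. After 21 days, size reduction relative to untreated plants was recorded; 3-4 randomized replicates.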

Data set [6] concerns Glycine max. The experiment in a line: whole plant or invertebrate. To be noted: for plant injury at 140 g/ha / plant injury at 280 g/ha: Glycine max, post-emergence, 504 h, read-out: Control/Injury; for Control/Injury: in vivo. Summed up: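 Greenhouse soybean (25–28 °C, 16 h light) sprayed post-emergence at 2–8 leaf stage with 140 or 280 g ae/ha in acetone/DMSO-based spray solution with crop oil concentrate, 187 L/ha by track sprayer; 3–4 replicates, randomized blocks. Plant size reduction versus untreated control measured 21 days after treatment.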

Where [7] appears, read: percent reduction vs untreated control.
Where [8] appears, read: R-AMAPA, percent reduction vs untreated control, 21 days after treatment.
Setting [9] is: percent reduction vs untreated control, 21 days after treatment.

Read-outs that look alike come from different tables or passages of the source.

For `CCOC(=O)/C(C#N)=N/OC(=O)c1c(Cl)ccc(Cl)c1OC` [Compound A-86], the pest or weed control at 140 g/ha in data set [1] was 63%; in data set [2], 88%; in data set [3] (setting [7]), 90%; in data set [4] (setting [8]), 72%; in data set [5] (setting [9]) it was 87%. Also, the pest or weed control at 280 g/ha stood at 67% in data set [1]; 91% in data set [2]; 97% in data set [3] (setting [7]); 73% in data set [4] (setting [8]); 95% in data set [5] (setting [9]). Besides, in data set [6], the plant injury at 140 g/ha amounted to 32%. The plant injury at 280 g/ha in data set [6] was determined as 25%.

As for `CCOC(=O)C(=NOC(=O)c1c(Cl)ccc(Cl)c1OC)C(=O)OCC` [Compound A-87], the pest or weed control at 140 g/ha in data set [1] amounted to 37%; in data set [2], 70%; in data set [3] (setting [7]) it was 90%; in data set [4] (setting [8]), 62%; in data set [5] (setting [9]), 30%. Besides, the pest or weed control at 280 g/ha amounted to 20% in data set [1]; 65% in data set [2]; 70% in data set [3] (setting [7]); 53% in data set [4] (setting [8]); 33% in data set [5] (setting [9]). Further, in data set [6], the plant injury at 140 g/ha was 5%. Moreover, the plant injury at 280 g/ha in data set [6] came to 28%.

Take `COc1c(Cl)ccc(Cl)c1C(=O)ONC(=O)c1ccccc1` [Compound A-89]: the pest or weed control at 140 g/ha in data set [1] was 63%; in data set [2] it was 80%; in data set [3] (setting [7]) it was 84%; in data set [4] (setting [8]) it was 70%; in data set [5] (setting [9]), 77%. Moreover, the pest or weed control at 280 g/ha in data set [1] was found to be 78%; in data set [2], 90%; in data set [3] (setting [7]), 95%; in data set [4] (setting [8]) it was 88%; in data set [5] (setting [9]), 95%. Besides, the plant injury at 140 g/ha in data set [6] is 13%. Also, the plant injury at 280 g/ha in data set [6] is 5%.

For the molecule `COc1c(Cl)ccc(Cl)c1C(=O)OC(=O)c1c(Cl)ccc(Cl)c1OC` [Compound A-90], the pest or weed control at 140 g/ha was determined as 22% in data set [1]; 57% in data set [2]; 17% in data set [3] (setting [7]); 32% in data set [4] (setting [8]); 30% in data set [5] (setting [9]). The pest or weed control at 280 g/ha in data set [1] came out at 18%; in data set [2], 67%; in data set [3] (setting [7]), 32%; in data set [4] (setting [8]), 40%; in data set [5] (setting [9]), 25%. In addition, the plant injury at 140 g/ha in data set [6] is 8%. Besides, in data set [6], the plant injury at 280 g/ha came out at 3%.

Take `CC/C(C)=N/OC(=O)c1c(Cl)ccc(Cl)c1OC` [Compound A-91]: the pest or weed control at 140 g/ha stood at 72% in data set [1]; 82% in data set [2]; 78% in data set [3] (setting [7]); 72% in data set [4] (setting [8]); 85% in data set [5] (setting [9]). The pest or weed control at 280 g/ha in data set [1] was 78%; in data set [2], 96%; in data set [3] (setting [7]), 98%; in data set [4] (setting [8]), 88%; in data set [5] (setting [9]), 88%. The plant injury at 140 g/ha in data set [6] is 3%. In addition, the plant injury at 280 g/ha in data set [6] amounted to 3%.

As for `COc1c(Cl)ccc(Cl)c1C(=O)ON1CCCCC1` [Compound A-92], the pest or weed control at 140 g/ha was 63% in data set [1]; 92% in data set [2]; 83% in data set [3] (setting [7]); 78% in data set [4] (setting [8]); 85% in data set [5] (setting [9]). Also, the pest or weed control at 280 g/ha in data set [1] was 92%; in data set [2], 96%; in data set [3] (setting [7]) it was 98%; in data set [4] (setting [8]), 80%; in data set [5] (setting [9]), 92%. In addition, the plant injury at 140 g/ha in data set [6] amounted to 2%. For the same molecule, in data set [6], the plant injury at 280 g/ha worked out at 4%.

Turning to `CCO/C(C)=N\OC(=O)c1c(Cl)ccc(Cl)c1OC` [Compound A-93], the pest or weed control at 140 g/ha amounted to 60% in data set [1]; 68% in data set [2]; 77% in data set [3] (setting [7]); 68% in data set [4] (setting [8]); 63% in data set [5] (setting [9]). Besides, the pest or weed control at 280 g/ha in data set [1] came out at 75%; in data set [2] it was 90%; in data set [3] (setting [7]), 93%; in data set [4] (setting [8]), 80%; in data set [5] (setting [9]), 80%. In addition, the plant injury at 140 g/ha in data set [6] was determined as 10%. Also, the plant injury at 280 g/ha in data set [6] amounted to 5%.

Consider `COc1c(Cl)ccc(Cl)c1C(=O)ONC(=O)c1cccnc1` [Compound A-94], for which the pest or weed control at 140 g/ha in data set [1] was determined as 68%; in data set [2] it was 75%; in data set [3] (setting [7]), 85%; in data set [3] (percent reduction vs untreated), 93%; in data set [4] (AMAPA), 83%; in data set [4] (setting [8]), 73%. Besides, the results for the pest or weed control at 140 g/ha in data set [5] and in data set [5] (setting [9]) were 95% and 62%, respectively. Moreover, the pest or weed control at 280 g/ha in data set [2] is 83%; in data set [3] (setting [7]) it was 93%; in data set [3] (percent reduction vs untreated) it was 98%; in data set [4] (AMAPA) it was 99%; in data set [4] (setting [8]), 80%; in data set [5], 99%. The pest or weed control at 280 g/ha in data set [5] (setting [9]) came out at 77%. Moreover, the plant injury at 140 g/ha in data set [6] turned out to be 12%. Also, in data set [6], the plant injury at 280 g/ha was 3%. The Control/Injury in data set [6] came out at 15.

For `COc1c(Cl)ccc(Cl)c1C(=O)NCc1ccccc1` [Compound A-114], the pest or weed control at 140 g/ha turned out to be 0% in data set [1]; 5% in data set [2]; 0% in data set [3] (percent reduction vs untreated); 5% in data set [4] (AMAPA); 2% in data set [5]. In addition, the pest or weed control at 280 g/ha in data set [1] is 5%; in data set [2], 0%; in data set [3] (percent reduction vs untreated), 0%; in data set [4] (AMAPA), 5%; in data set [5], 7%. This molecule also displayed a Control/Injury in data set [6] of 3.

On to `COc1c(Cl)ccc(Cl)c1C(=O)N1C(=O)C(=O)c2ccccc21` [Compound A-116], for which the pest or weed control at 140 g/ha in data set [1] was 5%; in data set [2] it was 3%; in data set [3] (percent reduction vs untreated), 0%; in data set [4] (AMAPA), 8%; in data set [5], 3%. Also, the pest or weed control at 280 g/ha in data set [1] worked out at 33%; in data set [2], 10%; in data set [3] (percent reduction vs untreated), 5%; in data set [4] (AMAPA) it was 30%; in data set [5] it was 5%. Also, the Control/Injury in data set [6] was 2.
